Results on 1 compound are retold here after US20070270393A1, “Methods and compositions for modulation of sleep cycle” (priority 2006, published 2007).

The subject of one assay is subjects with insomnia. In words: Actigraphy measures of TST and WASO, outpatient portion of the insomnia study. The settings on record: Tx (n = 2). It counts as in vivo, human.
In a further assay the target is T1, progesterone receptors (Homo sapiens, UniProt P06401).
T1 sequence (P06401 1-933): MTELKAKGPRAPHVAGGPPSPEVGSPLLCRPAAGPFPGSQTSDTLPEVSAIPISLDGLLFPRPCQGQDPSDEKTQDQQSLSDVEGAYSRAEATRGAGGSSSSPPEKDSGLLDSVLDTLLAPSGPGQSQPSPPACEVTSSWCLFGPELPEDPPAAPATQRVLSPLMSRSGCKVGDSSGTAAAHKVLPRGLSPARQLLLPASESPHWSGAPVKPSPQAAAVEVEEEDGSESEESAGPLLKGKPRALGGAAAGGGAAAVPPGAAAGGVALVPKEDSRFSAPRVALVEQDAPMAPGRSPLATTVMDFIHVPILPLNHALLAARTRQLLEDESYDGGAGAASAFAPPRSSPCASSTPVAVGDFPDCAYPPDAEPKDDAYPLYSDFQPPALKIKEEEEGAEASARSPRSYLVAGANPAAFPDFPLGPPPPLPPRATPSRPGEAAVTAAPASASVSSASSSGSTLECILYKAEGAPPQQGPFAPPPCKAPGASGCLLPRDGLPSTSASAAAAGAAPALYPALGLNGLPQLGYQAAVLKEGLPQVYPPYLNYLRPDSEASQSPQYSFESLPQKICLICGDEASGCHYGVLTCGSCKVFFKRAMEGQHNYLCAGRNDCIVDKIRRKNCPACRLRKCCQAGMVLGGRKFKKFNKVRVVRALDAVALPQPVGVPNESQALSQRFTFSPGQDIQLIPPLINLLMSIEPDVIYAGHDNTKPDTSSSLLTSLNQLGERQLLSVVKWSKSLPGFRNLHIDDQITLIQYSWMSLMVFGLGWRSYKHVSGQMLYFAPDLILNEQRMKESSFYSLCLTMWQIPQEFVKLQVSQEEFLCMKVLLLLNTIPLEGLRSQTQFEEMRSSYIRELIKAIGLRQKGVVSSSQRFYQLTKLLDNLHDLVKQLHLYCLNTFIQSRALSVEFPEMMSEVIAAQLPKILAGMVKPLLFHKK
The settings on record: literature; cited from earlier work.

Regarding `CC#C[C@]1(O)CC[C@H]2[C@@H]3CCC4=CC(=O)CCC4=C3[C@@H](c3ccc(N(C)C)cc3)C[C@@]21C` [mifepristone, 17-beta-hydroxy-11-beta-(4-dimethyl-aminophenyl)-17-alpha-(1-propynyl)-estra-4,9-dien-3-one], in the assay with subjects with insomnia (D7AV), the “D7AV-smin (actigraphy TST)” value came out at 458.86 min and the “D7AV-waso (actigraphy WASO)” value was 45.14. Further, in the assay on subjects with insomnia (D20AV), the “D20AV-smin (actigraphy TST)” value was found to be 448.40 min and the “D20AV-waso (actigraphy WASO)” value came to 51.70. For the same compound, in the assay with subjects with insomnia (D26AV), the “D26AV-smin (actigraphy TST)” value stood at 473.08 min and the “D26AV-waso (actigraphy WASO)” value turned out to be 31.67. The “antagonist of progesterone receptors” value on progesterone receptors was “powerful antagonist”.
